Results on 6 compounds are retold here after article PMC3692398 (Biochemical pharmacology, 2013).

Read-outs that look alike come from different tables or passages of the source.

Series [1] concerns the target T1, h5-HT1A receptor (Homo sapiens, UniProt P08908).
T1 sequence (P08908 1-422): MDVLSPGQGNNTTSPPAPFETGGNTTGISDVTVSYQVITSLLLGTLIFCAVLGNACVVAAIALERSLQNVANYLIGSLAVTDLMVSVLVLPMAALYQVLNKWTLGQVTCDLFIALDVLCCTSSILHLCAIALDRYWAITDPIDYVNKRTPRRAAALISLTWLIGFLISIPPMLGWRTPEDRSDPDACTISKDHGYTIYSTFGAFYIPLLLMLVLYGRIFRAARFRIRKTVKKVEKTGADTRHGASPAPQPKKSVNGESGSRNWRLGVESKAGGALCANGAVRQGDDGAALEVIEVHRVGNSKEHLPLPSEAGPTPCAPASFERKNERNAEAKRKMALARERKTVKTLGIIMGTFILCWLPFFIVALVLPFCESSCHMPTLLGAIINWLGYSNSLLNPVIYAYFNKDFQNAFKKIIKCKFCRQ
Put plainly: Stimulation of [35S]GTPγS binding, HEK-h5-HT1A membranes. The format is biochemical.

For series [2], the target named is T2, h5-HT2A receptor (Homo sapiens, UniProt P28223). The experiment in a line: Inhibition of 5-HT-stimulated IP-1 formation. The conditions noted are these: 100 nM 5-HT; for h5-HT2A Inhibition of 5-HT-stimulated IP-1 formation % maximum inhibition ± sem: normalized to maximal inhibition by ketanserin (10 µM). The format is cell-based.
T2 sequence (P28223 whole entry): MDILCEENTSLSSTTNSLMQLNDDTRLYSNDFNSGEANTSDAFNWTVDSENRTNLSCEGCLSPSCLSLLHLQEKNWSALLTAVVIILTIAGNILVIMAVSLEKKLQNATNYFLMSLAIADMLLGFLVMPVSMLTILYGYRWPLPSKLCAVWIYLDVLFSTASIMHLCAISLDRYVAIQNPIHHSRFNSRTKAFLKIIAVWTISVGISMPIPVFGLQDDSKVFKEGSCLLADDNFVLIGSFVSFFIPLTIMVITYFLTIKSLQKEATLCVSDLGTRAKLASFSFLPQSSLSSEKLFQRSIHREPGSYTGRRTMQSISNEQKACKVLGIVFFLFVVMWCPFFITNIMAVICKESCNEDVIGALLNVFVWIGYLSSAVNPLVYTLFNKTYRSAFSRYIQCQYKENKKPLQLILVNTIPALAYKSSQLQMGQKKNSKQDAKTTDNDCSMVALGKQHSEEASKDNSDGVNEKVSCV
Series [3] addresses T1, h5-HT1A receptor. The experiment in a line: [3H]8-OH-DPAT binding, HEK-h5-HT1A.
The target in series [4] is T3, hSERT (Homo sapiens, UniProt P31645). Put plainly: Inhibition of [3H]5-HT uptake, intact HEK-hSERT cells. The format is cell-based.
T3 sequence (P31645 whole entry): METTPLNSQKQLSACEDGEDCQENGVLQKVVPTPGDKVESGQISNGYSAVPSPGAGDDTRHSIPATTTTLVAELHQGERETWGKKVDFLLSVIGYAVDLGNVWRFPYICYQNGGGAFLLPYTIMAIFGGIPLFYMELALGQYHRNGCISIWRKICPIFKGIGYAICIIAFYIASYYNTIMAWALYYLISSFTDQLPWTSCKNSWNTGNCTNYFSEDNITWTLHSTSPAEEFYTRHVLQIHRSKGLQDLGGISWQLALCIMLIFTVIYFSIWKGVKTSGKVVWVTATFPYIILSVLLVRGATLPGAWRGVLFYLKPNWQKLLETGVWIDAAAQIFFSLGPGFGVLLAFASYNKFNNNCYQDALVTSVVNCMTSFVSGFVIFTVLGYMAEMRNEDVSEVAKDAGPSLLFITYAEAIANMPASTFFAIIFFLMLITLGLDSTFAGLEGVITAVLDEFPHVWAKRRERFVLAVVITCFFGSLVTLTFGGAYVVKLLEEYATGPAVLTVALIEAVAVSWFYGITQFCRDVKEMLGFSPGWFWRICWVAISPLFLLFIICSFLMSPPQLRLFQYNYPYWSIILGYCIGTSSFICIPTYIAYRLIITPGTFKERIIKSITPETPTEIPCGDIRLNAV
Series [5] concerns the target T4, hNET (Homo sapiens, UniProt P23975). The experiment in a line: cell-based. The format is cell-based.
In series [6] the target is T5, hVMAT2 (Homo sapiens, UniProt Q05940). The experiment in a line: Inhibition of [3H]5-HT uptake, HEK-hVMAT2 membrane preparation. The format is biochemical.
T5 sequence (Q05940 whole entry, the tested form may be a part): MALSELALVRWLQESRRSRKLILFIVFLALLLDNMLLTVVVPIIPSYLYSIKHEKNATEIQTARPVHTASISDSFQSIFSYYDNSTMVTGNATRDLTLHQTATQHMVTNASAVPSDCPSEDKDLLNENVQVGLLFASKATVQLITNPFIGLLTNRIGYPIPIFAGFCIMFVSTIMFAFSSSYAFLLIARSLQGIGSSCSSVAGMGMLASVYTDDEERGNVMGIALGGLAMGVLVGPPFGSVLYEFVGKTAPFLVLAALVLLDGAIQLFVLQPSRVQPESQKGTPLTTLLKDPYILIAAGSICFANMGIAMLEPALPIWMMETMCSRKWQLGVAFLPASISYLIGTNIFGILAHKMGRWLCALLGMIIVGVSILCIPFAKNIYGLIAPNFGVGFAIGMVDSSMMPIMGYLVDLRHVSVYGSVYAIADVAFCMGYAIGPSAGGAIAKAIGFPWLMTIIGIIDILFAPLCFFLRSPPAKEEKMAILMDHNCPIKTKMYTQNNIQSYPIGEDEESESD
The target of series [7] is T4, hNET. The experiment in a line: Superfusion release of preloaded [3H]NE from HEK-hNET cells. The format is cell-based. The conditions noted are these: for % maximum release ± sem, hNET [3H]NE: relative to maximal AUC induced by METH (0.3 or 1 µM).
Series [8] concerns the target T6, hDAT (Homo sapiens, UniProt Q01959). Put plainly: Inhibition of [125I]RTI-55 binding, HEK-hDAT membranes.
In series [9] the target is T6, hDAT. Put plainly: Inhibition of [3H]DA uptake, intact HEK-hDAT cells. The format is cell-based.
Series [10] deals with T7, h5-HT2C receptor (Homo sapiens, UniProt P28335).
T7 sequence (P28335 33-458): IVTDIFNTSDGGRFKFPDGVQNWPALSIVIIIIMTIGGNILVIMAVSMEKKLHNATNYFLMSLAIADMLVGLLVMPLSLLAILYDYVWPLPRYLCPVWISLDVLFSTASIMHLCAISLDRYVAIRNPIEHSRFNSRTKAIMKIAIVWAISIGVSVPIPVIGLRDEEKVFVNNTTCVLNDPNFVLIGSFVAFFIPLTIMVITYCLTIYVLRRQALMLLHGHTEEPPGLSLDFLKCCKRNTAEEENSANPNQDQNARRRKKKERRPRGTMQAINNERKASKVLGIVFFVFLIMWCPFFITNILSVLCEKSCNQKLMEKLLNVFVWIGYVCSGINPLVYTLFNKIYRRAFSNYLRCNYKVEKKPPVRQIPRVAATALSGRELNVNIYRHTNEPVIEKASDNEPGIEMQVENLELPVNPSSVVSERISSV
The experiment in a line: biochemical. The format is binding.

Series [11] concerns the target T4, hNET. Put plainly: biochemical. The format is binding.
The target in series [12] is T7, h5-HT2C receptor. Put plainly: Inhibition of 5-HT-stimulated IP-1 formation. The format is cell-based. The conditions noted are these: for h5-HT2C Inhibition of 5-HT-stimulated IP-1 formation % maximum inhibition ± sem: 100 nM 5-HT, normalized to maximal inhibition by SB242084 (1 µM).
In series [13] the target is T5, hVMAT2. Put plainly: Superfusion release of preloaded [3H]NE from HEK-hVMAT2 cells. The format is cell-based.
Series [14] addresses T5, hVMAT2. Put plainly: Inhibition of [3H]DHTB binding, HEK-hVMAT2 membranes.
The conditions of series [15]: blood from heart, periphery, and femoral veins; postmortem cases; ref [32];[33];[34]; cited from earlier work.
Series [16] deals with T2, h5-HT2A receptor. The experiment in a line: [125I]DOI binding, HEK-h5-HT2A. The conditions noted are these: read-out: Inhibition of radioligand binding Ki ± sem, h5-HT2A [125I]DOI.
Series [17] addresses T3, hSERT. Put plainly: Superfusion release of preloaded [3H]5-HT from HEK-hSERT cells. The format is cell-based.
Series [18] addresses T6, hDAT. Put plainly: Superfusion release of preloaded [3H]DA from HEK-hDAT cells. The format is cell-based.
In series [19] the target is hSigma1 receptor (Homo sapiens, UniProt Q99720). The experiment in a line: [3H]. The format is binding.
Chain of hSigma1 receptor (Q99720 whole entry): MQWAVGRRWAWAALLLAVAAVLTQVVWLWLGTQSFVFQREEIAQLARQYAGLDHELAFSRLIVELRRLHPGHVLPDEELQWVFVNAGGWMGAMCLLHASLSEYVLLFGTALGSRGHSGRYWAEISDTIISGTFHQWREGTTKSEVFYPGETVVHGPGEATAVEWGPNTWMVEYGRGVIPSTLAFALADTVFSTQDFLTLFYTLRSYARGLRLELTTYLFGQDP
Series [20] concerns the target T3, hSERT. Put plainly: Inhibition of [125I]RTI-55 binding, HEK-hSERT membranes.
Series [21] deals with human DA D1 receptor (Homo sapiens, UniProt P21728). The experiment in a line: [3H]SCH23390 binding, LhD1 cells. The conditions noted are these: test drugs up to the maximal concentration tested (10 µM).
Chain of human DA D1 receptor (P21728 whole entry): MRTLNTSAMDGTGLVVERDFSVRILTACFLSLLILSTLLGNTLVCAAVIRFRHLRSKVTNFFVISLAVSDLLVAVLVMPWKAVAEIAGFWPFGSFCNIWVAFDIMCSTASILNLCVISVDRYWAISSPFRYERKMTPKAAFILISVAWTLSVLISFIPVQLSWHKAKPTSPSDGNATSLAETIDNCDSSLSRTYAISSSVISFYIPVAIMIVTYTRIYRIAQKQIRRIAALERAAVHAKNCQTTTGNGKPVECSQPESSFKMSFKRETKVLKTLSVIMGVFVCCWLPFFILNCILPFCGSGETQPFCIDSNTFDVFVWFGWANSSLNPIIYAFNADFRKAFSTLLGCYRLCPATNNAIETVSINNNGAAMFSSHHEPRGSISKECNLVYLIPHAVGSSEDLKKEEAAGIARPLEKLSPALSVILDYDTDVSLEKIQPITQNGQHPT
Series [22] concerns the target human DA D2 receptor (Homo sapiens, UniProt P14416). The format is binding.
The mark [23] stands for this setting: concentrations ranging from 1 nM to 100 µM.

T4 sequence (P23975 whole entry): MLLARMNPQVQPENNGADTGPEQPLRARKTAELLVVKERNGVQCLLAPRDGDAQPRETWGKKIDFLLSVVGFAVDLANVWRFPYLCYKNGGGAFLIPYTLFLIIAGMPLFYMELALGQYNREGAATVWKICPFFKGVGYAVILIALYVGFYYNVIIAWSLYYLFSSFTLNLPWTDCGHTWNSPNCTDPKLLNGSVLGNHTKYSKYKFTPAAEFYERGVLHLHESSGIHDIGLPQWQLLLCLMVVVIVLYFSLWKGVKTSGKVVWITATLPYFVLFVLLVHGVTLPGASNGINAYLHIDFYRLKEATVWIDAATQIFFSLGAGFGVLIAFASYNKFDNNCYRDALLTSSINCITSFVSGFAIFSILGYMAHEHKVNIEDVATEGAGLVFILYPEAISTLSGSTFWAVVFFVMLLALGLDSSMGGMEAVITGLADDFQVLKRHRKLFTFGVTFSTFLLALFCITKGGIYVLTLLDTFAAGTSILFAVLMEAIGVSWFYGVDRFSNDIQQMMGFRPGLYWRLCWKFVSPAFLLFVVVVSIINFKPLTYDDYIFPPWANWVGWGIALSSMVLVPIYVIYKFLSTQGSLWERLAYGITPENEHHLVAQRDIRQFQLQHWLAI
T6 sequence (Q01959 whole entry): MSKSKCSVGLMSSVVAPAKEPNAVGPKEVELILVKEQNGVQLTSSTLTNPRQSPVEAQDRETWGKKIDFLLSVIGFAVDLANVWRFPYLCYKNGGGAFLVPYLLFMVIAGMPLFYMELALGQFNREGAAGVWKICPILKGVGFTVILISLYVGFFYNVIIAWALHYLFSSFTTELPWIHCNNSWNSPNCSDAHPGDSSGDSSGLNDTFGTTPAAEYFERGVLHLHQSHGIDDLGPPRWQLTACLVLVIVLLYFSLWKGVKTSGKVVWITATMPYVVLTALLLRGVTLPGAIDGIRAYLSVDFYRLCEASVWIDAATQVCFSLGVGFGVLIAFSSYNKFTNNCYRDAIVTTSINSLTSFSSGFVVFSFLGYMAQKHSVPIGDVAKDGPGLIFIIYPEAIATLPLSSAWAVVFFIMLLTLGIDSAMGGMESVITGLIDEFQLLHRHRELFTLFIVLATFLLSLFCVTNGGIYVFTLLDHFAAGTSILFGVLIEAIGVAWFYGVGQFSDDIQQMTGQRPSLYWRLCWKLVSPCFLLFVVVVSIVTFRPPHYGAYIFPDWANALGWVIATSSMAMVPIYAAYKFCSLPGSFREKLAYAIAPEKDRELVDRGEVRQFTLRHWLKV
Chain of human DA D2 receptor (P14416 whole entry): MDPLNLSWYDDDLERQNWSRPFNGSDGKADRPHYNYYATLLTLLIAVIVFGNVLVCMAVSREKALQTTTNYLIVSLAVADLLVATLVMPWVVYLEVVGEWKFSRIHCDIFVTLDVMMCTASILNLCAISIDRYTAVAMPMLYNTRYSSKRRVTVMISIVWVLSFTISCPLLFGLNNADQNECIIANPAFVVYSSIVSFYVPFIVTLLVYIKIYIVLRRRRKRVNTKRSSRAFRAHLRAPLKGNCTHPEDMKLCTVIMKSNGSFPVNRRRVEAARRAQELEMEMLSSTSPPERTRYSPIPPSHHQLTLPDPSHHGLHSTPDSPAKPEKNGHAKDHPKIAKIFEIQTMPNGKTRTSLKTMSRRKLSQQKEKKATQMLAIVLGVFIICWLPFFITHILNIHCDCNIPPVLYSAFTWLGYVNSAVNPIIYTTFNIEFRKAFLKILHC

For `CCCC(C(=O)c1ccc2c(c1)OCO2)N1CCCC1` (stereo not drawn) [MDPV, 3,4-methylenedioxypyrovalerone], the “h5-HT1A Stimulation of [35S]GTPγS binding % maximum stimulation ± sem” value in series [1] (normalized to the maximal stimulation by 5-HT) stood at 69.0 ± 6.7%. Also, the EC50 was 60.8 ± 8.4 µM in [1] (read-out: h5-HT1A Stimulation of [35S]GTPγS binding EC50 ± sem); over 100 µM in series [7] (read-out: Drug-induced release of [3H]neurotransmitter EC50 ± sem, hNET [3H]NE, superfusion, AUC); 148 ± 84 µM in [13] (read-out: Drug-induced release of [3H]NE EC50 ± sem, hVMAT2, superfusion); over 100 µM in series [17] (read-out: Drug-induced release of [3H]neurotransmitter EC50 ± sem, hSERT [3H]5-HT, superfusion, AUC); over 100 µM in series [18] (read-out: Drug-induced release of [3H]neurotransmitter EC50 ± sem, hDAT [3H]DA, superfusion, AUC). Also, the “h5-HT2A Inhibition of 5-HT-stimulated IP-1 formation % maximum inhibition ± sem” value in series [2] is given as 67.7 ± 5.4%. The IC50 was 270 ± 86 µM in [2] (read-out: h5-HT2A Inhibition of 5-HT-stimulated IP-1 formation IC50 ± sem); 1.38 µM in series [4] (read-out: Inhibition of [3H]neurotransmitter uptake IC50 ± sem, hSERT [3H]5-HT, 20 nM [3H]5-HT, intact cells); 0.0188 ± 0.0021 µM in [5] (read-out: Inhibition of [3H]neurotransmitter uptake IC50 ± sem, hNET [3H]NE, 20 nM [3H]NE, intact cells); over 100 µM in series [6] (read-out: Inhibition of [3H]5-HT uptake IC50 ± sem, hVMAT2, 40 nM [3H]5-HT, 2 mM MgATP); 0.0126 ± 0.0024 µM in series [9] (read-out: Inhibition of [3H]neurotransmitter uptake IC50 ± sem, hDAT [3H]DA, 20 nM [3H]DA, intact cells). The Ki in series [3] (read-out: Inhibition of radioligand binding Ki ± sem, h5-HT1A [3H]8OH-DPAT) was determined as 14.8 ± 3.8 µM; in series [8] (read-out: Inhibition of [125I]RTI-55 binding Ki ± sem, hDAT, HEK-hDAT membranes), 0.0194 ± 0.0032 µM; in [10] (read-out: Inhibition of radioligand binding Ki ± sem, h5-HT2C [125I]DOI) it was 107 ± 30 µM; in series [11] (read-out: Inhibition of [125I]RTI-55 binding Ki ± sem, hNET, HEK-hNET membranes) it was 0.107 ± 0.034 µM; in series [14] (read-out: Inhibition of [3H]DHTB binding Ki ± sem, hVMAT2), 990 ± 270 µM; in series [16], 207 ± 29 µM. The Ki in series [19] (read-out: Inhibition of [3H]pentazocine binding Ki ± sem, hSigma1) was found to be 4.4 ± 1.7 µM. Moreover, the “ratio of binding Ki to uptake IC50, hSERT” value in [4] ([125I]RTI-55 Ki / [3H]5-HT uptake IC50) was “less than six”. The “ratio of binding Ki to uptake IC50, hNET” value in series [5] ([125I]RTI-55 Ki / [3H]NE uptake IC50) is reported as “less than six”. Also, the “releasing efficacy, hNET [3H]NE” value in series [7] (concentrations ranging from 10 nM to 100 µM) is reported as “minimal releasing efficacy”. Also, the “% maximum release ± sem, hNET [3H]NE” value in series [7] is 18 ± 15%. Besides, in [9] ([125I]RTI-55 Ki / [3H]DA uptake IC50), the “ratio of binding Ki to uptake IC50, hDAT” value is “less than six”. In addition, the “fold less potent at other target proteins than at biogenic amine transporters” value in series [9] (other target proteins vs biogenic amine transporters) is recorded as 60–350 fold. In addition, the “h5-HT2C Inhibition of 5-HT-stimulated IP-1 formation % maximum inhibition ± sem” value in [12] came out at 24.5 ± 8.4%. Further, the “Release of [3H]NE % maximum release ± sem or range, hVMAT2” value in series [13] amounted to 35.8 ± 9.6%. In addition, the postmortem blood concentration in [15] was 0.06 to 3.3 mg/L. Further, in series [15], the “postmortem blood concentration (molar)” value was 0.25 to 14 µM. The “releasing efficacy, hSERT [3H]5-HT” value in [17] (setting [23]) is “minimal releasing efficacy”. Moreover, in series [17] (relative to maximal AUC induced by PCA (10 µM)), the “% maximum release ± sem, hSERT [3H]5-HT” value worked out at 6.9 ± 2.1%. In addition, in [18], the “% maximum release ± sem, hDAT [3H]DA” value is 4.8 ± 5.3%. For the same compound, the “releasing efficacy, hDAT [3H]DA” value in series [18] (setting [23]) is “minimal releasing efficacy”.
With `OC1(c2ccc(Cl)cc2)c2ccccc2C2=NCCN21` (stereo not drawn) [Mazindol, reference compound], the IC50 in series [4] amounted to 0.0307 ± 0.0055 µM; in series [5], 0.00185 ± 0.00049 µM. Also, the Ki turned out to be 0.026 ± 0.012 µM in series [20] and 0.0054 ± 0.0016 µM in [11].
Consider `CNC(C)C(=O)c1ccc(C)cc1` (stereo not drawn) [Mephedrone, 4-methyl-N-methylcathinone], for which the EC50 in series [1] was 126 ± 29 µM; in [7], 0.41 ± 0.13 µM; in [13] it was 66 ± 23 µM; in series [17], 11.9 ± 4.9 µM; in [18] it was 1.19 ± 0.34 µM. Further, in series [1] (read-out: h5-HT1A Stimulation of [35S]GTPγS binding % maximum stimulation ± sem), the Emax was 44%. The “h5-HT2A Inhibition of 5-HT-stimulated IP-1 formation % maximum inhibition ± sem” value in series [2] is 98.7 ± 1.3%. For the same compound, the Ki was over 91 µM in series [3]; 21 ± 4.8 µM in series [20]; 4.8 ± 0.75 µM in [8]; 9.1 ± 2.1 µM in [10]; 11.8 ± 4 µM in series [11]; over 1000 µM in series [14]. For the same compound, the Ki in series [19] (Inhibition of [3H]pentazocine binding Ki ± sem, hSigma1) worked out at 7.8 ± 2 µM. Also, the IC50 in [4] was 0.51 ± 0.15 µM; in series [5] it was 0.0536 ± 0.0087 µM; in series [6], 116 ± 8.8 µM; in [9], 0.098 ± 0.027 µM; in series [12], over 440 µM. In addition, the “time of peak [3H]NE release after addition of drug” value in [7] fell in the range of 8 to 16 min. Further, the “% maximum release ± sem, hNET [3H]NE” value in [7] came to 152 ± 32%. In [12], the “h5-HT2C Inhibition of 5-HT-stimulated IP-1 formation % maximum inhibition ± sem” value is 66.3 ± 8.4%. Also, in [13], the “Release of [3H]NE % maximum release ± sem or range, hVMAT2” value was 33.1 ± 1.9%. Moreover, in [15], the postmortem blood concentration was 0.06 to 3.3 mg/L. Also, the “postmortem blood concentration (molar)” value in series [15] was 0.25 to 14 µM. Also, the “% maximum release ± sem, hSERT [3H]5-HT” value in series [17] came to 53 ± 13%. In addition, in series [17], the “time of peak [3H]5-HT release after addition of drug” value is recorded as “about 6 min”. Further, in series [18], the “% maximum release ± sem, hDAT [3H]DA” value turned out to be 68 ± 11%. In [18] (4-FMC 10 µM to 300 µM, mephedrone 30 µM, methylone 100 µM), the “time of peak/maximal [3H]DA release after addition of drug” value is listed as 8 min.
Regarding `CN1CCc2cc(Cl)c(O)cc2[C@@H](c2ccccc2)C1` [SCH23390], the “affinity for the [3H]SCH23390 binding site, DA D1 receptor” value in [21] was “high affinity”.
For the compound `Oc1cc2c(cc1O)C(c1ccccc1)CNCC2` (stereo not drawn) [SKF38393], the “affinity for the [3H]SCH23390 binding site, DA D1 receptor” value in [21] is reported as “high affinity”.
For `CC(C)(C)[C@]1(O)CCN2C[C@H]3c4ccccc4CCc4cccc(c43)[C@@H]2C1` [butaclamol], the “affinity for the [3H]YM-09151-2 binding site, DA D2 receptor” value in [22] is listed as “subnanomolar”.
